Measured values as given in patent US11708318B2, “Polymorphic forms of RAD1901-2HCL” (Radius Pharmaceuticals, Inc., priority 2017, dated 2023).
Entries after “also recorded” stand apart in the source; their conditions may differ. Read-outs that look alike come from different tables or passages of the source.

Legend:
[1] = Variable humidity XRPD (VH-XRPD); assay type: physicochemical; details: ~95% RH, 24 hr
Protocol: Samples run under non-ambient conditions were prepared by gently packing into a cavity, cut into a silicon wafer to obtain a flat surface and mounted onto a humidity stage with an Ansyco controller and humidity sensor positioned directly next to the sample holder. The data were collected at 298.15 K with water temperature of 35.0° C., in an angular range of 3 to 31° 2θ, with a step size of 0.025° 2θ, a collection time of 2.0 sec/step, and a collection time at each % RH was 41 min 28 sec. X-Ray Powder Diffraction (XRPD) patterns were collected at variable humidity values from 0 to 95% RH, based upon the humidity behavior of each compound observed during GVS experiments (described herein). For each Variable Humidity X-Ray Powder Diffraction (VH-XRPD) experiment performed, the % RH values selected are provided alongside the relevant experimental result. Full tables of detailing the % RH value at each collection point and the associated delay time at each value are provided in Tables 10-12. To fully characterize the polymorphic behavior of Samples 1 and 2 at variable humidity, and to collect reference XRPD patterns for the ‘pure’ anhydrous Form 1 and Form 2 material, and ‘pure’ hydrated Form 3 material, Variable Humidity (VH) XRPD experiments were conducted on Samples 1 and 2. Initially, VH-XRPD experiments were conducted using Sample 1, and XRPD diffractograms were collected at selected humidity values, in line with those collected during GVS experiments (see FIGS. 6E-6F). XRPD diffractograms were collected initially at ambient RH, then collected over 24 hours at ˜95% RH and finally collected during desorption steps to 0% RH and over 10 hours at 0% RH (see FIG. 4C). […]

[2] = Solubility assessment of Sample 1 (majorly Form 1) in 24 solvent systems; assay type: physicochemical; details: organic solvent or mixture
Protocol: Solubility assessment was carried out on the Sample 1 of RAD1901-2HCl (majorly Form 1 shown by XRPD) in 24 solvent systems in HPLC vials (sample IDs: A1 to A24). RAD1901-2HCl (25 mg) was treated with increasing volumes of solvent until the material fully dissolved or until a maximum of 60 vol had been used (Table 13).
After each addition of solvent, the system was stirred for 5 to 10 minutes at 25° C., then shaken at 50° C. for 5 to 10 minutes, and observations made. Samples were allowed to stand at room temperature for 5 min before the addition of a new aliquot of solvent. After the assessment was completed, the suspensions obtained were matured (maturation) and the clear solutions were cooled (cooling) and slowly evaporated (evaporation) as described below. All solids recovered from maturation, cooling and evaporation experiments were analyzed by high resolution XRPD.

- solubility ([2]; 1,2-dimethoxyethane, 50 °C, thermodynamic from solid, 1,2-dimethoxyethane, sample ID A16, read-out: Solubility assessment 10 vol.): < 100 mg/mL
- solubility ([2]; 1,2-dimethoxyethane, 50 °C, thermodynamic from solid, 1,2-dimethoxyethane, sample ID A16, read-out: Solubility assessment 20 vol.): < 50 mg/mL
- solubility ([2]; 1,2-dimethoxyethane, 50 °C, thermodynamic from solid, 1,2-dimethoxyethane, sample ID A16, read-out: Solubility assessment 40 vol.): < 25 mg/mL
- solubility ([2]; 1,2-dimethoxyethane, 50 °C, thermodynamic from solid, 1,2-dimethoxyethane, sample ID A16, read-out: Solubility assessment 60 vol.): < 16.7 mg/mL
- solubility ([2]; 1,4-dioxane, 50 °C, thermodynamic from solid, 1,4-Dioxane, sample ID A14, read-out: Solubility assessment 10 vol.): < 100 mg/mL
- solubility ([2]; 1,4-dioxane, 50 °C, thermodynamic from solid, 1,4-Dioxane, sample ID A14, read-out: Solubility assessment 20 vol.): < 50 mg/mL
- solubility ([2]; 1,4-dioxane, 50 °C, thermodynamic from solid, 1,4-Dioxane, sample ID A14, read-out: Solubility assessment 40 vol.): < 25 mg/mL
- solubility ([2]; 1,4-dioxane, 50 °C, thermodynamic from solid, 1,4-Dioxane, sample ID A14, read-out: Solubility assessment 60 vol.): < 16.7 mg/mL
- solubility ([2]; 1-propanol, 50 °C, thermodynamic from solid, 1-propanol, sample ID A8, read-out: Solubility assessment 10 vol.): < 100 mg/mL
- solubility ([2]; 1-propanol, 50 °C, thermodynamic from solid, 1-propanol, sample ID A8, read-out: Solubility assessment 20 vol.): < 50 mg/mL
- solubility ([2]; 1-propanol, 50 °C, thermodynamic from solid, 1-propanol, sample ID A8, read-out: Solubility assessment 40 vol.): < 25 mg/mL
- solubility ([2]; 1-propanol, 50 °C, thermodynamic from solid, 1-propanol, sample ID A8, read-out: Solubility assessment 60 vol.): < 16.7 mg/mL
- solubility ([2]; 2-propanol, 50 °C, thermodynamic from solid, 2-propanol, sample ID A6, read-out: Solubility assessment 10 vol.): < 100 mg/mL
- solubility ([2]; 2-propanol, 50 °C, thermodynamic from solid, 2-propanol, sample ID A6, read-out: Solubility assessment 20 vol.): < 50 mg/mL
- solubility ([2]; 2-propanol, 50 °C, thermodynamic from solid, 2-propanol, sample ID A6, read-out: Solubility assessment 40 vol.): < 25 mg/mL
- solubility ([2]; 2-propanol, 50 °C, thermodynamic from solid, 2-propanol, sample ID A6, read-out: Solubility assessment 60 vol.): < 16.7 mg/mL
- solubility ([2]; 10% water/EtOH, 50 °C, thermodynamic from solid, 10% water/EtOH, sample ID A22, read-out: Solubility assessment 10 vol.): 50 to 100 mg/mL
- solubility ([2]; 10% water/EtOH, 50 °C, thermodynamic from solid, 10% water/EtOH, sample ID A22, read-out: Solubility assessment 20 vol.): 50 to 100 mg/mL
- solubility ([2]; 10% water/IPA, 50 °C, thermodynamic from solid, 10% water/IPA, sample ID A23, read-out: Solubility assessment 10 vol.): < 100 mg/mL
- solubility ([2]; 10% water/IPA, 50 °C, thermodynamic from solid, 10% water/IPA, sample ID A23, read-out: Solubility assessment 20 vol.): < 50 mg/mL
- solubility ([2]; 10% water/IPA, 50 °C, thermodynamic from solid, 10% water/IPA, sample ID A23, read-out: Solubility assessment 40 vol.): 16.7 to 25 mg/mL
- solubility ([2]; 10% water/IPA, 50 °C, thermodynamic from solid, 10% water/IPA, sample ID A23, read-out: Solubility assessment 60 vol.): 16.7 to 25 mg/mL
- solubility ([2]; 10% water/THF, 50 °C, thermodynamic from solid, 10% water/THF, sample ID A24, read-out: Solubility assessment 10 vol.): < 100 mg/mL
- solubility ([2]; 10% water/THF, 50 °C, thermodynamic from solid, 10% water/THF, sample ID A24, read-out: Solubility assessment 20 vol.): < 50 mg/mL
- solubility ([2]; 10% water/THF, 50 °C, thermodynamic from solid, 10% water/THF, sample ID A24, read-out: Solubility assessment 40 vol.): 16.7 to 25 mg/mL
- solubility ([2]; 10% water/THF, 50 °C, thermodynamic from solid, 10% water/THF, sample ID A24, read-out: Solubility assessment 60 vol.): 16.7 to 25 mg/mL
- solubility ([2]; MEK, 50 °C, thermodynamic from solid, MEK, sample ID A7, read-out: Solubility assessment 10 vol.): < 100 mg/mL
- solubility ([2]; MEK, 50 °C, thermodynamic from solid, MEK, sample ID A7, read-out: Solubility assessment 20 vol.): < 50 mg/mL
- solubility ([2]; MEK, 50 °C, thermodynamic from solid, MEK, sample ID A7, read-out: Solubility assessment 40 vol.): < 25 mg/mL
- solubility ([2]; MEK, thermodynamic from solid, MEK, sample ID A7, read-out: Solubility assessment 60 vol.): < 16.7 mg/mL
- solubility ([2]; MIBK, 50 °C, thermodynamic from solid, MIBK, sample ID A5, read-out: Solubility assessment 10 vol.): < 100 mg/mL
- solubility ([2]; MIBK, 50 °C, thermodynamic from solid, MIBK, sample ID A5, read-out: Solubility assessment 20 vol.): < 50 mg/mL
- solubility ([2]; MIBK, 50 °C, thermodynamic from solid, MIBK, sample ID A5, read-out: Solubility assessment 40 vol.): < 25 mg/mL
- solubility ([2]; MIBK, thermodynamic from solid, MIBK, sample ID A5, read-out: Solubility assessment 60 vol.): < 16.7 mg/mL
- solubility ([2]; TBME, 50 °C, thermodynamic from solid, TBME, sample ID A13, read-out: Solubility assessment 10 vol.): < 100 mg/mL
- solubility ([2]; TBME, 50 °C, thermodynamic from solid, TBME, sample ID A13, read-out: Solubility assessment 20 vol.): < 50 mg/mL
- solubility ([2]; TBME, 50 °C, thermodynamic from solid, TBME, sample ID A13, read-out: Solubility assessment 40 vol.): < 25 mg/mL
- solubility ([2]; TBME, thermodynamic from solid, TBME, sample ID A13, read-out: Solubility assessment 60 vol.): < 16.7 mg/mL
- solubility ([2]; acetone, 50 °C, thermodynamic from solid, Acetone, sample ID A9, read-out: Solubility assessment 10 vol.): < 100 mg/mL
- solubility ([2]; acetone, 50 °C, thermodynamic from solid, Acetone, sample ID A9, read-out: Solubility assessment 20 vol.): < 50 mg/mL
- solubility ([2]; acetone, 50 °C, thermodynamic from solid, Acetone, sample ID A9, read-out: Solubility assessment 40 vol.): < 25 mg/mL
- solubility ([2]; acetone, 50 °C, thermodynamic from solid, Acetone, sample ID A9, read-out: Solubility assessment 60 vol.): < 16.7 mg/mL
- solubility ([2]; acetonitrile, 50 °C, thermodynamic from solid, Acetonitrile, sample ID A19, read-out: Solubility assessment 10 vol.): < 100 mg/mL
- solubility ([2]; acetonitrile, 50 °C, thermodynamic from solid, Acetonitrile, sample ID A19, read-out: Solubility assessment 20 vol.): < 50 mg/mL
SMILES: CCNCCc1ccc(CN(CC)c2cc(OC)ccc2[C@@H]2CCc3cc(O)ccc3C2)cc1.Cl.Cl [Sample 1]
- VH-XRPD at ~95% RH over 24 hr [1]: slow conversion towards the hydrated state; also recorded: Form 3 over 24
